Series [1] addresses T1, glucosylceramide synthase (GCS) (Homo sapiens, UniProt Q16739).
T1 sequence (Q16739 1-394): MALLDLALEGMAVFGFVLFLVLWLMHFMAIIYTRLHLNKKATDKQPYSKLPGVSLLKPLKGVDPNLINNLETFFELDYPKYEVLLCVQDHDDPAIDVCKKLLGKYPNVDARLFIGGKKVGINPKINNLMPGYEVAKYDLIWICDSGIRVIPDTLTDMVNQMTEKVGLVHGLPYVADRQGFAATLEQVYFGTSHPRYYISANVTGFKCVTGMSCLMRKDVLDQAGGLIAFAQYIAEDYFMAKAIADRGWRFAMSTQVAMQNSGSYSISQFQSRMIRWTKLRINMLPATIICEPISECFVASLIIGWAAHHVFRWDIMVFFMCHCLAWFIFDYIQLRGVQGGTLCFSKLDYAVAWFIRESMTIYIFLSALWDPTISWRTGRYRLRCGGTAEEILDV
The settings on record: stated in words only, no test described; cited from earlier work.

The next series deals with NPC (−/−) mice. Put plainly: Clinical signs and tremor score in the Niemann-Pick type C mouse model. It is filed as in vivo. The settings on record: for Overall clinical signs: scores PND 56-70. As for the experimental part:
Out of the 38 mice to be included in this study, there were 30 NPC (−/−) knock-out (KO) mice, 4 NPC (+/−) heterozygous mice and 4 NPC (+/+) wild-type (WT, Balb/c) mice. NPC1(−/−) mice have a premature truncation of the protein deleting 11 out of 13 transmembrane domains leaving the first two transmembrane domains intact. NPC1(−/−) mice homozygous for the recessive NIH allele of the Niemann Pick type C1 gene (Npc1 ml N) show a dual deficiency of sphingomyelinase and glucocerebrosidase activity (JAX #003092). Animals were bred on a BALB/c OlaHsd background.
24 NPC1 (−/−) mice (groups D to I) were treated per oral gavage (10 mL/kg) with AZ-3102-00 from post-natal day 11 (P11) to post-natal-day 70 (P70). Dosing will start at 1.5 mg/kg from P11 to P25, followed by 3 mg/kg from P26 to P70. Control mice included 6 NPC1 (−/−) and 4 NPC (+/−) mice treated with vehicle and 4 NPC (+/+) mice received AZ-3102-00 (groups A to C).
Definitions of Clinical Scores and Humane Endpoints Clinical Signs were monitored on a daily basis starting at P45 until the end of the study (according to the template shown in FIG. 18). The parameters “weight loss”, “general health”, “clinical findings” and “line specific findings” were recorded and rated according to a score scale. The sum of this score was used for evaluation.
Pink (=light grey) bars represent the appearance and duration of a high level of tremor (sore of 5); whereas the green (=dark grey) bars represent the appearance and duration of a slight or moderate tremor. […] Possible tremor scores: 0: no tremor1: Slight incoordination, slight-moderate tremor; 5: High level of Tremor, uncoordinated movement; 10: Reduced righting reflex (no animal achieved this score).

Series [2] is described as follows: Dynamic vapour sorption (DVS), hygroscopicity. It is filed as physicochemical. The settings on record: listed as Form 3. As for the experimental part:
Dynamic vapour sorption (DVS) measurements were performed with an SPS11-100n “Sorptions Prüfsystem” from ProUmid (formerly “Projekt Messtechnik”), August-Nagel-Str. 23, 89079 Ulm (Germany). About 5 mg to 20 mg of sample was put into an aluminum sample pan. Humidity change rates of 5% per hour were used. The applied measurement program can be described as follows:
The sample was placed on an aluminium or platinum holder on top of a microbalance and allowed to equilibrate at a relative humidity (RH) of 50% before starting the pre-defined humidity programs: • (1) 2 h at 50% RH • (2) 50→0% RH (5%/h); 5 h at 0% RH • (3) 0→95% RH (5%/h); 5 h at 95% RH • (4) 95→0% RH (5%/h); 5 h at 0% RH • (5) 0→95% RH (5%/h); 5 h at 95% RH • (6) 95→50% RH (5%/h); 2 h at 50% RH

Series [3] addresses T2, non-lysosomal glucosylcerebrosidase (GbA2) (Homo sapiens, UniProt Q9HCG7).
T2 sequence (Q9HCG7 1-927): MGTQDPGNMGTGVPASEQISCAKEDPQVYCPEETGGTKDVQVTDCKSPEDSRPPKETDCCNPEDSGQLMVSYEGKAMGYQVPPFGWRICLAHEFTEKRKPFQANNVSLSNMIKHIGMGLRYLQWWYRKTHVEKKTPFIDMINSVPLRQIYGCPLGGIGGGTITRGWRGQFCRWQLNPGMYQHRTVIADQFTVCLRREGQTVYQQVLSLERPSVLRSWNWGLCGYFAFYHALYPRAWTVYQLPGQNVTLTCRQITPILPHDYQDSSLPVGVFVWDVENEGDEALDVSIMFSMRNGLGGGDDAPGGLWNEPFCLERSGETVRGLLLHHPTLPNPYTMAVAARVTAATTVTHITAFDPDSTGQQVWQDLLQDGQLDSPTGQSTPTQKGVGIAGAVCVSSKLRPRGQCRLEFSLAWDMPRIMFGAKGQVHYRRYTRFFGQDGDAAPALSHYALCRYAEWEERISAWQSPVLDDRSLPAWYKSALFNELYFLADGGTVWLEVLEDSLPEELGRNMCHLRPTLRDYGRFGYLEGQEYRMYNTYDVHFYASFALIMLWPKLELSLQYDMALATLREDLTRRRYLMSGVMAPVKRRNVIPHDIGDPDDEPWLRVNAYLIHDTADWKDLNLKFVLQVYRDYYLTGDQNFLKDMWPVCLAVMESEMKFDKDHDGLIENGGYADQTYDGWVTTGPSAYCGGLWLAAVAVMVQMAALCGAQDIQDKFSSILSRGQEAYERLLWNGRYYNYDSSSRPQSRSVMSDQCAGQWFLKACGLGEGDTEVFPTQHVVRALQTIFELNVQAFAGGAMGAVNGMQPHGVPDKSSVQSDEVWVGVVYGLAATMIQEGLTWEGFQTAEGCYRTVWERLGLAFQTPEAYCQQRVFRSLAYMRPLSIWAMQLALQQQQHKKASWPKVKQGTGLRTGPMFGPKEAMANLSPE
The settings on record: stated in words only, no test described; cited from earlier work.

Series [4] can be described thus: Stability of the crystalline form (transition of Form 2 into Form 3). It is filed as physicochemical. As to conditions: Form 2 transitions into Form 3 above around 30° C. in about 1-5 min, or in solvent for more than 5 min at around 25° C.; listed as Form 3. As for the experimental part:
Alternatively, Form 2 transitioned into Form 3 upon equilibration in solvent (e.g. acetone) for more than 5 min at around 25° C.

“Also recorded” adds a separate entry of the source.

Take `OC[C@H]1[C@@H](O)[C@H](O)[C@@H](O)CN1CCCCCOCc1ccc(-c2ccccc2)c(F)c1` [AZ-3102]: the “Potency as inhibitor of GCS” value in series [1] is “highly potent (nM)”. In addition, the “Mice with a high level of tremor (score of 5)” value in the series with NPC (−/−) mice (NPC (−/−) mice treated P11-P70, observed PND 56-70, vehicle group 4 out of 5) is given as 1 out of 24. The “Initiation, duration and strength of tremor” value with NPC (−/−) mice (NPC (−/−) mice, treated versus vehicle, PND 56-70) is reported as “diminished”. The Overall clinical signs entry in the series on NPC (−/−) mice (NPC (−/−) mice, treated versus vehicle) is recorded as “improved clinical signs”; in the series on NPC (−/−) mice (NPC (−/−) mice, treated versus vehicle, listed as Form 3) it was “improve the clinical signs”. For the same compound, in series [2], the “Hygroscopicity (description)” value is “non-hygroscopic or substantially non-hygroscopic; also recorded: substantially non-hygroscopic”. Further, the “Potency as inhibitor of GbA2” value in series [3] is given as “highly potent (nM)”. The “Stability of the crystalline form” value in series [4] is “better stability”.
